The values below come from PubChem BioAssay (NCI).

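Dose response: 5 concentrations. Exposure: 48 h. Format: 96-well plates. Endpoint: linear interpolation; highest concentration if not reached. TGI: total growth inhibition.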

Holding throughout (test): DTP human tumour cell line panel, 48 h
In test [1] the test system is CCRF-CEM leukemia.
Test [2] concerns SNB-75 CNS.
In test [3] the test system is SW-620 colon.
The subject of test [4] is RPMI-8226 leukemia.
The subject of test [5] is A498 renal.
The subject of test [6] is MDA-MB-231 breast.
In test [7] the test system is MDA-N.
Test [8] relates to SK-OV-3 ovarian.
In test [9] the test system is OVCAR-3 ovarian.
The subject of test [10] is NCI-H226 lung.

As to `COc1ccc(OC)c(C(=O)/C=C/c2cc(O)c(O)cc2F)c1`, the total growth inhibition concentration (TGI) is 15.7 µM in [1]; 28.2 µM in test [2]; over 66.5 µM in test [3]; 7.83 µM in [4]; 12.5 µM in [5]; 11.4 µM in test [6]. In addition, the TGI is 0.534 µM in [7], over 67.5 µM in [8], 1.59 µM in test [9] and 15.4 µM in [10].
Consider `O=C1c2n[nH]nc2C(=O)c2n[nH]nc21`, for which the TGI in test [1], in [2], in test [3], in [4], in test [5] and in [6] was over 100 µM each time. The TGI in test [7], in test [8], in [9] and in test [10] was over 100 µM in each case.
Regarding `N#Cc1nc(C(F)(F)F)oc1N`, the TGI in test [1], in test [2], in test [3], in [4], in [5] and in test [6] was over 100 µM each time. Moreover, the total growth inhibition concentration (TGI) in test [7], in test [8], in test [9] and in test [10] was over 100 µM throughout.
For `CN1[C@@H]2CCCC[C@H]2N(C)P1(=O)C(O)/C=C/c1ccccc1` (stereo not given in full), the total growth inhibition concentration (TGI) in [1], in test [2], in test [3], in [4], in [5] and in test [6] was over 100 µM each time. Also, the TGI in test [7], in test [8], in test [9] and in [10] was over 100 µM each time.
Turning to `CCOC(=O)CN=C1Nc2ccccc2C(=O)N2CSCC12` (stereo not given), the concentration for total growth inhibition (TGI) in [1], in test [2], in test [3], in test [4], in test [5] and in test [6] was over 100 µM each time. Also, the concentration for total growth inhibition (TGI) in test [7], in test [8], in test [9] and in [10] was over 100 µM in each case.
As to `NNC(=Nc1ccccc1)SCc1ccccc1`, the concentration for total growth inhibition (TGI) in test [1], in [2], in test [3], in test [4], in [5] and in test [6] was over 100 µM each time. The concentration for total growth inhibition (TGI) in test [7], in test [8], in test [9] and in [10] was over 100 µM in each case.
Regarding `Nc1nc2cc(CNc3ccc(C(=O)O)cc3)ccc2nc1-c1ccccc1`, the concentration for total growth inhibition (TGI) in [1], in test [2], in test [3], in [4], in test [5] and in [6] was over 100 µM each time. The total growth inhibition concentration (TGI) in test [7], in test [8], in test [9] and in test [10] was over 100 µM throughout.
Consider `O=C(O)CS(=O)c1ccc2c3c(cccc13)C(=O)c1ccccc1-2` (stereo not given), for which the TGI in [1], in test [2], in test [3], in [4], in [5] and in test [6] was over 100 µM in each case. Moreover, the TGI in test [7], in [8], in [9] and in test [10] was over 100 µM in each case.
For `CN(C)c1ccc(/C=N/n2c(-c3ccccc3)nc3ccccc3c2=O)cc1`, the TGI in test [1], in test [2], in test [3], in test [4], in test [5] and in [6] was over 100 µM each time. Also, the concentration for total growth inhibition (TGI) in [7], in test [8], in test [9] and in test [10] was over 100 µM in each case.
Take `CC(/C=N/N(C)C1=NCCCCN1)=N/N(C)C1=NCCCCN1`: the TGI in [1], in test [2], in test [3], in test [4], in test [5] and in test [6] was over 100 µM in each case. The TGI in [7], in test [8], in [9] and in [10] was over 100 µM each time.
In the case of `NC(CCl)=NC1CN2CCC1CC2` (stereo not given), the TGI in [1], in [2], in test [3], in test [4], in [5] and in [6] was over 100 µM each time. Further, the total growth inhibition concentration (TGI) in [7], in [8], in test [9] and in [10] was over 100 µM throughout.
Consider `Cc1c(C#N)c2nnn(-c3ccc([N+](=O)[O-])cc3)c(=O)n2c1-c1ccccc1`, for which the TGI in test [1] was over 100 µM; in test [2] it was 39.7 µM; in test [3], 51 µM; in [4], over 100 µM; in test [5], 29.5 µM; in test [6] it was 34.7 µM. For the same molecule, the TGI in [7] was found to be 31.3 µM; in test [8] it was 79.4 µM; in test [9] it was 10 µM; in [10] it was 26.9 µM.
In the case of `COc1cc2c(cc1OC)C1=Cc3ccc(OC)c(OC)c3C(C#N)N1CC2` (stereo not given), the total growth inhibition concentration (TGI) was over 100 µM in [1]; 33.8 µM in test [2]; over 100 µM in test [3]; 76.3 µM in test [4]; over 100 µM in test [5]; 81.3 µM in [6]. Further, the concentration for total growth inhibition (TGI) in test [7], in [8], in test [9] and in test [10] was over 100 µM each time.
For `COc1cc(CCNC2=CC(=O)c3cccnc3C2=O)ccc1O`, the TGI in test [1] is 25.9 µM; in test [2] it was 2.06 µM; in test [3], 2.94 µM; in test [4] it was 5.2 µM; in test [5], 7.6 µM; in [6] it was 2.08 µM. Moreover, the TGI in test [7] amounted to 0.308 µM; in [8], 11.1 µM; in test [9], 5.51 µM; in test [10] it was 3.53 µM.
As for `COc1ccc2c(c1)c(=O)c1c(NCCCN(C)CCCNc3ccc4c(=O)n(CCN(C)C)c(=O)n5c6ccc(OC)cc6c(=O)c3c45)ccc3c(=O)n(CCN(C)C)c(=O)n2c31`, the TGI in test [1] worked out at 0.049 µM; in test [2], 0.216 µM; in test [3] it was 0.752 µM; in [4], 0.176 µM; in [5] it was 3.39 µM; in test [6] it was 2.56 µM. Further, the total growth inhibition concentration (TGI) in [7] was 1.49 µM; in test [8], 4.98 µM; in [9], 2.56 µM; in test [10], 0.409 µM.
On to `c1ccc2c(c1)nc1n2CCNC1`, for which the TGI in test [1], in test [2], in test [3], in [4], in [5] and in test [6] was over 100 µM each time. For the same molecule, the total growth inhibition concentration (TGI) in test [7], in test [8], in test [9] and in test [10] was over 100 µM in each case.
Turning to `O=C(Nc1ccccc1)c1cc(S(=O)(=O)Nc2n[nH]c(=O)[nH]2)c(SSc2cc(Cl)c(C(=O)Nc3ccccc3)cc2S(=O)(=O)Nc2n[nH]c(=O)[nH]2)cc1Cl`, the total growth inhibition concentration (TGI) in [1], in test [2], in test [3], in test [4], in test [5] and in test [6] was over 100 µM in each case. Moreover, the TGI in [7], in test [8], in test [9] and in test [10] was over 100 µM each time.
`COc1ccc(C2c3cc4c(cc3OC(NNC(N)=O)C2C)OCO4)cc1` (stereo not given): the TGI in test [1] is over 29.4 µM; in [2] it was over 33.3 µM; in test [3], over 100 µM; in test [4] it was 20.2 µM; in [5] it was 8.59 µM; in test [6], over 100 µM. Moreover, the TGI was 6.86 µM in test [7], over 100 µM in test [8], 14.3 µM in [9] and over 76.2 µM in test [10].
On to `CC(C)=CCC/C(=C\CC/C(=C\CCc1ccoc1)C(=O)O)C(=O)O`, for which the TGI in test [1], in test [2], in [3], in [4], in test [5] and in [6] was over 100 µM throughout. Moreover, the TGI in [7], in [8], in test [9] and in test [10] was over 100 µM in each case.
`CC(C)(C)OC(=O)NC1CCCC1C(O)(C1=CCCC1)C1=CCCC1` (stereo not given): the TGI in test [1], in [2], in test [3], in test [4], in test [5] and in test [6] was over 100 µM in each case. For the same molecule, the concentration for total growth inhibition (TGI) in test [7], in [8], in test [9] and in test [10] was over 100 µM throughout.
With `CC1(C)C2CCC1(C)C(N/C(=C(/C(Cl)=C(Cl)Cl)[N+](=O)[O-])n1nnc3ccccc31)C2` (stereo not given), the concentration for total growth inhibition (TGI) is over 100 µM in test [1]; 70 µM in test [2]; over 100 µM in test [3]; over 100 µM in test [4]; 37.5 µM in [5]; 53.7 µM in [6]. In addition, the TGI in test [7] was over 100 µM; in test [8], over 100 µM; in [9], 32.6 µM; in test [10], 50.3 µM.

As usually defined, the TGI is the concentration at which net growth stops.
